Test results published in patent US20260007681A1, “INDOLE DERIVATIVES AS ESTROGEN RECEPTOR DEGRADERS” (REGENTS OF THE UNIVERSITY OF MICHIGAN, priority 2022, published 2026).
Structures can show the parent of a compound that is named as a salt. Where two headings read alike, the source gives them in different places.

Assays:
[1] = biological target: CRBN/DDB1 (Homo sapiens (Human), UniProt Q96SW2); type: binding
Experimental: The binding potency was determined using H-TRF assay technology (Perkin Elmer). Compounds were serially diluted in DMSO and 0.2 μL volume was transferred to white 384-well plate.

[2] = biological target: ER in MCF-7 cells (Homo sapiens (Human), UniProt P03372); assay: In-cell western (ICW) ER degradation assay in MCF-7 cells (Compounds A1-A70); type: cell-based; details: for DC50: ER degradation, 0.02 to 300 nM, read-out: MCF7 ICW DC50
ER in MCF-7 cells, sequence (P03372 whole entry): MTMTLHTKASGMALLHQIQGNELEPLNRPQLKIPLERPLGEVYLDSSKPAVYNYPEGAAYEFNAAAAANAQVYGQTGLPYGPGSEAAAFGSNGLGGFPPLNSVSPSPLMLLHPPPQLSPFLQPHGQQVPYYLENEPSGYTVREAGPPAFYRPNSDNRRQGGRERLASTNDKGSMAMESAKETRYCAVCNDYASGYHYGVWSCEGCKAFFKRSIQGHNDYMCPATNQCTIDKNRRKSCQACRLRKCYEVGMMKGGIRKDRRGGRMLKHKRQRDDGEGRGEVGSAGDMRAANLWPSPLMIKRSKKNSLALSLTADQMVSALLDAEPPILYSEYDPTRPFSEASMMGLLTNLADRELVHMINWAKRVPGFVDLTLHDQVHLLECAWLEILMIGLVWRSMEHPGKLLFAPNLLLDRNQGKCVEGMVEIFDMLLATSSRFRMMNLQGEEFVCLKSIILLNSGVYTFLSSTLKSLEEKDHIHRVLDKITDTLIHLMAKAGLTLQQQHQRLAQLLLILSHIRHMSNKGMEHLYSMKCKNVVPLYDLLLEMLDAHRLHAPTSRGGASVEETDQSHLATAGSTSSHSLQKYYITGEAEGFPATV

[3] = biological target: ER in T47D cells (Homo sapiens (Human), UniProt P03372); assay: In-cell western (ICW) ER degradation assay in T47D cells (Compounds A1-A70); type: cell-based; details: for DC50: ER degradation, 0.02 to 300 nM; for Dmax: T47D, read-out: T47D ICW Dmax (%)
ER in T47D cells, sequence (P03372 whole entry): as above

[4] = His tagged CRBN+DDB-DLS7+CXU4, Cy5-labeled Thalidomide probe, one hour incubation, read-out: CRBN HTRF IC50
[5] = MCF7, maximal ER degradation, MCF-7 cells, 16 hrs treatment, read-out: MCF7 ICW Dmax (%)
[6] = maximal ER degradation, T47D cells, 16 hrs treatment
[7] = MCF7, read-out: MCF7 ICW Dmax (%)

COc1cc(N2CCC(CN3CCN4c5ccc6c(c5OC[C@@H]4C3)CN([C@@H]3CCC(=O)NC3=O)C6=O)CC2)ccc1[C@@H]1c2[nH]c3ccccc3c2C[C@@H](C)N1CC(F)F [Compound A42, (R)-3-((S)-7-((1-(4-((1R,3R)-2-(2,2-difluoroethyl)-3-methyl-2,3,4,9-tetrahydro-1H-pyrido[3,4-b]indol-1-yl)-3-methoxyphenyl)piperidin-4-yl)methyl)-1-oxo-1,3,5,5a,6,7,8,9-octahydro-2H-pyrazino[1′,2′:4,5][1,4]oxazino[2,3-e]isoindol-2-yl)piperidine-2,6-dione]
IC50 [1, 4]: 500 to 5000 nM | DC50 ([2]; MCF-7 cells, 16 hrs treatment): < 1 nM | Dmax [2, 5]: 50 to 75% | DC50 ([3]; T47D cells, 16 hrs treatment): < 1 nM | Dmax [3, 6]: 50 to 75%

COc1cc(N2CCC(CN3CCN(c4ccc(C(=O)N[C@H]5CCC(=O)NC5=O)nc4)CC3)CC2)ccc1[C@@H]1c2[nH]c3ccccc3c2C[C@@H](C)N1CC(F)F [Compound A43, 5-(4-((1-(4-((1R,3R)-2-(2,2-difluoroethyl)-3-methyl-2,3,4,9-tetrahydro-1H-pyrido[3,4-b]indol-1-yl)-3-methoxyphenyl)piperidin-4-yl)methyl)piperazin-1-yl)-N—((S)-2,6-dioxopiperidin-3-yl)picolinamide formate]
IC50 [1, 4]: 500 to 5000 nM | DC50 ([2]; MCF-7 cells, 16 hrs treatment): < 1 nM | Dmax [2, 5]: 50 to 75% | DC50 ([3]; T47D cells, 16 hrs treatment): < 1 nM | Dmax [3, 6]: 50 to 75%

COc1cc(N2CCC(CN3CCN4c5cc6c(cc5OC[C@@H]4C3)C(=O)N([C@@H]3CCC(=O)NC3=O)C6)CC2)ccc1[C@H]1c2[nH]c3ccccc3c2C[C@H](C)N1CC(F)F [Compound A44, (R)-3-((S)-3-((1-(4-((1S,3S)-2-(2,2-difluoroethyl)-3-methyl-2,3,4,9-tetrahydro-1H-pyrido[3,4-b]indol-1-yl)-3-methoxyphenyl)piperidin-4-yl)methyl)-8-oxo-1,2,3,4,4a,5,8,10-octahydro-9H-pyrazino[1′,2′:4,5][1,4]oxazino[2,3-f]isoindol-9-yl)piperidine-2,6-dione]
IC50 [1, 4]: 50 to 500 nM | DC50 ([2]; MCF-7 cells, 16 hrs treatment): < 1 nM | Dmax [2, 5]: 50 to 75% | DC50 ([3]; T47D cells, 16 hrs treatment): < 1 nM | Dmax [3, 6]: 50 to 75%

COc1cc(N2CCC3(CCN(C(=O)CN4Cc5cnc(C(=O)N[C@H]6CCC(=O)NC6=O)cc5C4)CC3)CC2)ccc1[C@@H]1c2[nH]c3ccccc3c2C[C@@H](C)N1CC(F)F [Compound A50, 2-(2-(9-(4-((1R,3R)-2-(2,2-difluoroethyl)-3-methyl-2,3,4,9-tetrahydro-1H-pyrido[3,4-b]indol-1-yl)-3-methoxyphenyl)-3,9-diazaspiro[5.5]undecan-3-yl)-2-oxoethyl)-N—((S)-2,6-dioxopiperidin-3-yl)-2,3-dihydro-1H-pyrrolo[3,4-c]pyridine-6-carboxamide formate]
IC50 [1]: 500 to 5000 nM | Dmax [2, 7]: 50 to 75% | Dmax [3]: 50 to 75%

COc1cc(N2CCC(CN3CCN4c5ccc(C(=O)NC6CCC(=O)NC6=O)nc5OC[C@H]4C3)CC2)ccc1[C@@H]1c2[nH]c3ccccc3c2C[C@@H](C)N1CC(F)F (stereo partly drawn) [Compound A51, (4aR)-3-((1-(4-((1R,3R)-2-(2,2-difluoroethyl)-3-methyl-2,3,4,9-tetrahydro-1H-pyrido[3,4-b]indol-1-yl)-3-methoxyphenyl)piperidin-4-yl)methyl)-N-(2,6-dioxopiperidin-3-yl)-1,2,3,4,4a,5-hexahydropyrazino[1,2-d]pyrido[2,3-b][1,4]oxazine-8-carboxamide formate]
IC50 [1, 4]: 500 to 5000 nM | DC50 ([2]; MCF-7 cells, 16 hrs treatment): < 1 nM | Dmax [2, 7]: > 75% | DC50 ([3]; T47D cells, 16 hrs treatment): < 1 nM | Dmax [3, 6]: > 75%

COc1cc(N2CCC(CN3CCN(c4ccc(C(=O)NC5CCC(=O)NC5=O)nc4OC)CC3)CC2)ccc1[C@@H]1c2[nH]c3ccccc3c2C[C@@H](C)N1CC(F)F (stereo partly drawn) [Compound A52, 5-(4-((1-(4-((1R,3R)-2-(2,2-difluoroethyl)-3-methyl-2,3,4,9-tetrahydro-1H-pyrido[3,4-b]indol-1-yl)-3-methoxyphenyl)piperidin-4-yl)methyl)piperazin-1-yl)-N-(2,6-dioxopiperidin-3-yl)-6-methoxypicolinamide]
IC50 [1, 4]: > 5000 nM | DC50 ([2]; MCF-7 cells, 16 hrs treatment): < 1 nM | Dmax [2, 5]: 25 to 50% | DC50 ([3]; T47D cells, 16 hrs treatment): 1 to 10 nM | Dmax [3, 6]: 25 to 50%

COc1cc(N2CCC(CN3CCC(c4ccc(C(=O)NC5CCC(=O)NC5=O)nc4)CC3)CC2)ccc1[C@@H]1c2[nH]c3ccccc3c2C[C@@H](C)N1CC(F)F (stereo partly drawn) [Compound A53, 5-(1-((1-(4-((1R,3R)-2-(2,2-difluoroethyl)-3-methyl-2,3,4,9-tetrahydro-1H-pyrido[3,4-b]indol-1-yl)-3-methoxyphenyl)piperidin-4-yl)methyl)piperidin-4-yl)-N-(2,6-dioxopiperidin-3-yl)picolinamide]
IC50 [1, 4]: 500 to 5000 nM | DC50 ([2]; MCF-7 cells, 16 hrs treatment): < 1 nM | Dmax [2, 5]: 25 to 50% | DC50 ([3]; T47D cells, 16 hrs treatment): > 100 nM | Dmax [3, 6]: < 25%

COc1cc(N2CCC(CN3CCN4c5ccc(C(=O)NC6CCC(=O)NC6=O)nc5OC[C@H]4C3)CC2)ccc1[C@H]1c2[nH]c3ccccc3c2C[C@H](C)N1CC(F)F (stereo partly drawn) [Compound A54, (4aR)-3-((1-(4-((1S,3S)-2-(2,2-difluoroethyl)-3-methyl-2,3,4,9-tetrahydro-1H-pyrido[3,4-b]indol-1-yl)-3-methoxyphenyl)piperidin-4-yl)methyl)-N-(2,6-dioxopiperidin-3-yl)-1,2,3,4,4a,5-hexahydropyrazino[1,2-d]pyrido[2,3-b][1,4]oxazine-8-carboxamide]
IC50 [1, 4]: 500 to 5000 nM | DC50 ([2]; MCF-7 cells, 16 hrs treatment): < 1 nM | Dmax [2, 5]: 50 to 75% | DC50 ([3]; T47D cells, 16 hrs treatment): < 1 nM | Dmax [3, 6]: 50 to 75%

COc1cc(N2CCC(CN3CCN(c4ccc(C(=O)N[C@@H]5CCC(=O)NC5=O)nc4)CC3)CC2)ccc1[C@@H]1c2[nH]c3ccccc3c2C[C@@H](C)N1CC(F)F [Compound A57, 5-(4-((1-(4-((1R,3R)-2-(2,2-difluoroethyl)-3-methyl-2,3,4,9-tetrahydro-1H-pyrido[3,4-b]indol-1-yl)-3-methoxyphenyl)piperidin-4-yl)methyl)piperazin-1-yl)-N-((R)-2,6-dioxopiperidin-3-yl)picolinamide formate]
IC50 [1, 4]: < 50 nM | DC50 ([2]; MCF-7 cells, 16 hrs treatment): < 1 nM | Dmax [2, 5]: 50 to 75% | DC50 ([3]; T47D cells, 16 hrs treatment): < 1 nM | Dmax [3, 6]: 25 to 50%

C[C@H]1Cc2c([nH]c3ccccc23)[C@H](c2cnc(N3CCC4(CC3)C[C@H](CN3CCN5c6ccc7c(c6OC[C@@H]5C3)CN([C@@H]3CCC(=O)NC3=O)C7=O)CO4)nc2)N1CC(F)F [Compound A58, (R)-3-((S)-7-(((R)-8-(5-((1S,3S)-2-(2,2-difluoroethyl)-3-methyl-2,3,4,9-tetrahydro-1H-pyrido[3,4-b]indol-1-yl)pyrimidin-2-yl)-1-oxa-8-azaspiro[4.5]decan-3-yl)methyl)-1-oxo-1,3,5,5a,6,7,8,9-octahydro-2H-pyrazino[1′,2′:4,5][1,4]oxazino[2,3-e]isoindol-2-yl)piperidine-2,6-dione]
IC50 [1, 4]: 50 to 500 nM | DC50 ([2]; MCF-7 cells, 16 hrs treatment): < 1 nM | Dmax [2, 5]: 50 to 75% | DC50 ([3]; T47D cells, 16 hrs treatment): < 1 nM | Dmax [3, 6]: 50 to 75%

C[C@H]1Cc2c([nH]c3ccccc23)[C@H](c2cnc(N3CCC4(CC3)C[C@H](CN3CCN5c6cc7c(cc6OC[C@H]5C3)C(=O)N([C@@H]3CCC(=O)NC3=O)C7)CO4)nc2)N1CC(F)F [Compound A60, (R)-3-((R)-3-(((R)-8-(5-((1S,3S)-2-(2,2-difluoroethyl)-3-methyl-2,3,4,9-tetrahydro-1H-pyrido[3,4-b]indol-1-yl)pyrimidin-2-yl)-1-oxa-8-azaspiro[4.5]decan-3-yl)methyl)-8-oxo-1,2,3,4,4a,5,8,10-octahydro-9H-pyrazino[1′,2′:4,5][1,4]oxazino[2,3-f]isoindol-9-yl)piperidine-2,6-dione]
IC50 [1, 4]: 500 to 5000 nM | DC50 ([2]; MCF-7 cells, 16 hrs treatment): < 1 nM | Dmax [2, 5]: 50 to 75% | DC50 ([3]; T47D cells, 16 hrs treatment): < 1 nM | Dmax [3, 6]: 50 to 75%

C[C@H]1Cc2c([nH]c3ccccc23)[C@H](c2ccc(N3CCC(CN4CCN5c6ccc7c(c6OC[C@@H]5C4)CN([C@@H]4CCC(=O)NC4=O)C7=O)CC3)cn2)N1CC(F)(F)F [Compound A62, (R)-3-((S)-7-((1-(6-((1R,3S)-3-methyl-2-(2,2,2-trifluoroethyl)-2,3,4,9-tetrahydro-1H-pyrido[3,4-b]indol-1-yl)pyridin-3-yl)piperidin-4-yl)methyl)-1-oxo-1,3,5,5a,6,7,8,9-octahydro-2H-pyrazino[1′,2′:4,5][1,4]oxazino[2,3-e]isoindol-2-yl)piperidine-2,6-dione]
IC50 [1, 4]: 500 to 5000 nM | DC50 ([2]; MCF-7 cells, 16 hrs treatment): 10 to 100 nM | Dmax [2, 5]: 25 to 50% | DC50 ([3]; T47D cells, 16 hrs treatment): 10 to 100 nM | Dmax [3, 6]: 25 to 50%

C[C@H]1Cc2c([nH]c3ccccc23)[C@H](c2ccc(N3CCC(CN4CCN5c6cc7c(cc6OC[C@H]5C4)C(=O)N([C@@H]4CCC(=O)NC4=O)C7)CC3)cn2)N1CC(F)(F)F [Compound A64, (R)-3-((R)-3-((1-(6-((1R,3S)-3-methyl-2-(2,2,2-trifluoroethyl)-2,3,4,9-tetrahydro-1H-pyrido[3,4-b]indol-1-yl)pyridin-3-yl)piperidin-4-yl)methyl)-8-oxo-1,2,3,4,4a,5,8,10-octahydro-9H-pyrazino[1′,2′:4,5][1,4]oxazino[2,3-f]isoindol-9-yl)piperidine-2,6-dione]
IC50 [1, 4]: 500 to 5000 nM | DC50 ([2]; MCF-7 cells, 16 hrs treatment): > 100 nM | Dmax [2, 5]: < 25% | DC50 ([3]; T47D cells, 16 hrs treatment): > 100 nM | Dmax [3, 6]: < 25%
